ChEMBL document CHEMBL3885861, “Open TG-GATES”

Organism: Rattus norvegicus
Experiment: Open TG-GATES - Regimen: Daily Repeat
Assay type: toxicity, organism-based, Sprague-Dawley
Set-up: regimen Daily Repeat, gender Male, age 6 weeks
Conditions: in vivo, po, 300 mg/kg, route gavage, dose level Middle; for APTT / Bas / Eos / Fbg / Hb / Ht / Lym / MCH / MCHC / MCV / Mono / Neu / PT / Plat / RBC / Ret / WBC: tissue Blood; for KIDNEY_L / KIDNEY_R / KIDNEY_TOTAL: tissue Kidney; for LIVER: tissue Liver; for A/G / ALP / ALT / AST / BUN / CRE / Ca / Cl / DBIL / GLC / IP / K / LDH / Na / PL / RALB / TBIL / TC / TG / TP / gamma-GTP: tissue Plasma

Question: Which results are given for `CCOc1ccc(NC(=O)CC(C)O)cc1` (configuration not stated) [BUCETIN]?
Answer: TERMINAL_BW (72 h, time 3 day): 247.8 g; APTT (72 h, time 3 day): 18.9 s; Bas (72 h, time 3 day): 0%; Eos (72 h, time 3 day): 1.2%; Fbg (72 h, time 3 day): 291.2 mg/dL; Hb (72 h, time 3 day): 13.1 g/dL; Ht (72 h, time 3 day): 39.1%; Lym (72 h, time 3 day): 72.8%; MCH (72 h, time 3 day): 20.5 pg; MCHC (72 h, time 3 day): 33.4%; MCV (72 h, time 3 day): 61.3 fL; Mono (72 h, time 3 day): 3.4%; Neu (72 h, time 3 day): 21.6%; PT (72 h, time 3 day): 14.2 s; Plat (72 h, time 3 day): 123.5 x10_4/uL; RBC (72 h, time 3 day): 638.8 x10_4/ul; Ret (72 h, time 3 day): 6.8%; WBC (72 h, time 3 day): 109.9 x10_2/uL; KIDNEY_L (72 h, time 3 day): 1 g; KIDNEY_R (72 h, time 3 day): 1 g; KIDNEY_TOTAL (72 h, time 3 day): 2 g; LIVER (72 h, time 3 day): 11.7 g; A/G (72 h, time 3 day): 0.9; ALP (72 h, time 3 day): 1855.6 IU/L; ALT (72 h, time 3 day): 39.2 IU/L; AST (72 h, time 3 day): 68.2 IU/L; BUN (72 h, time 3 day): 15.2 mg/dL; CRE (72 h, time 3 day): 0.2 mg/dL; Ca (72 h, time 3 day): 10.8 mg/dL; Cl (72 h, time 3 day): 104.8 meq/L; DBIL (72 h, time 3 day): 0.024 mg/dL; GLC (72 h, time 3 day): 184 mg/dL; IP (72 h, time 3 day): 6.9 mg/dL; K (72 h, time 3 day): 4.2 meq/L; LDH (72 h, time 3 day): 99.6 IU/L; Na (72 h, time 3 day): 143.4 meq/L; PL (72 h, time 3 day): 164.2 mg/dL; RALB (72 h, time 3 day): 2.7 g/dL; TBIL (72 h, time 3 day): 0.052 mg/dL; TC (72 h, time 3 day): 82.8 mg/dL; TG (72 h, time 3 day): 116.2 mg/dL; TP (72 h, time 3 day): 5.8 g/dL; gamma-GTP (72 h, time 3 day): 1 IU/L; TERMINAL_BW ([…], time 7 day): 289.1 g; TERMINAL_BW ([…], time 14 day): 360.7 g; TERMINAL_BW ([…], time 28 day): 431.8 g; APTT ([…], time 7 day): 16.1 s; Bas ([…], time 7 day): 0%; Eos ([…], time 7 day): 1%; Fbg ([…], time 7 day): 278.6 mg/dL; Hb ([…], time 7 day): 13.4 g/dL; Ht ([…], time 7 day): 39.6%; Lym ([…], time 7 day): 74%; MCH ([…], time 7 day): 21.1 pg; MCHC ([…], time 7 day): 33.7%; MCV ([…], time 7 day): 62.5 fL; Mono ([…], time 7 day): 2.8%; Neu ([…], time 7 day): 21.6%; PT ([…], time 7 day): 14 s; Plat ([…], time 7 day): 120 x10_4/uL; RBC ([…], time 7 day): 634.2 x10_4/ul; Ret ([…], time 7 day): 6.8%; WBC ([…], time 7 day): 107.3 x10_2/uL; APTT ([…], time 14 day): 15.9 s; Bas ([…], time 14 day): 0%; Eos ([…], time 14 day): 1%; Fbg ([…], time 14 day): 312 mg/dL; Hb ([…], time 14 day): 14.4 g/dL; Ht ([…], time 14 day): 42.4%; Lym ([…], time 14 day): 75.2%; MCH ([…], time 14 day): 20.8 pg; MCHC ([…], time 14 day): 34.1%; MCV ([…], time 14 day): 61 fL; Mono ([…], time 14 day): 2.4%; Neu ([…], time 14 day): 21.2%; PT ([…], time 14 day): 13.8 s; Plat ([…], time 14 day): 113 x10_4/uL; RBC ([…], time 14 day): 695.6 x10_4/ul; Ret ([…], time 14 day): 4.7%; WBC ([…], time 14 day): 106.6 x10_2/uL; APTT ([…], time 28 day): 18.8 s; Bas ([…], time 28 day): 0%; Eos ([…], time 28 day): 1.4%; Fbg ([…], time 28 day): 274 mg/dL; Hb ([…], time 28 day): 14.7 g/dL; Ht ([…], time 28 day): 42.6%; Lym ([…], time 28 day): 74.6%; MCH ([…], time 28 day): 19.3 pg; MCHC ([…], time 28 day): 34.5%; MCV ([…], time 28 day): 56 fL; Mono ([…], time 28 day): 2.2%; Neu ([…], time 28 day): 20.6%; PT ([…], time 28 day): 14.1 s; Plat ([…], time 28 day): 106.2 x10_4/uL; RBC ([…], time 28 day): 760 x10_4/ul; Ret ([…], time 28 day): 3.5%; WBC ([…], time 28 day): 138.7 x10_2/uL; KIDNEY_L ([…], time 7 day): 1.2 g; KIDNEY_R ([…], time 7 day): 1.1 g; KIDNEY_TOTAL ([…], time 7 day): 2.3 g; KIDNEY_L ([…], time 14 day): 1.4 g; KIDNEY_R ([…], time 14 day): 1.4 g; KIDNEY_TOTAL ([…], time 14 day): 2.7 g; KIDNEY_L ([…], time 28 day): 1.6 g; KIDNEY_R ([…], time 28 day): 1.6 g; KIDNEY_TOTAL ([…], time 28 day): 3.2 g; LIVER ([…], time 7 day): 13.6 g; LIVER ([…], time 14 day): 17.2 g; LIVER ([…], time 28 day): 18.4 g; A/G ([…], time 7 day): 0.8; ALP ([…], time 7 day): 1676.6 IU/L; ALT ([…], time 7 day): 42.4 IU/L; AST ([…], time 7 day): 67.4 IU/L; BUN ([…], time 7 day): 15.8 mg/dL; CRE ([…], time 7 day): 0.2 mg/dL; Ca ([…], time 7 day): 11 mg/dL; Cl ([…], time 7 day): 105.2 meq/L; DBIL ([…], time 7 day): 0.018 mg/dL; GLC ([…], time 7 day): 190.6 mg/dL; IP ([…], time 7 day): 6.6 mg/dL; K ([…], time 7 day): 4.2 meq/L; LDH ([…], time 7 day): 115.2 IU/L; Na ([…], time 7 day): 143.8 meq/L; PL ([…], time 7 day): 178 mg/dL; RALB ([…], time 7 day): 2.7 g/dL; TBIL ([…], time 7 day): 0.04 mg/dL; TC ([…], time 7 day): 91.2 mg/dL; TG ([…], time 7 day): 131.2 mg/dL; TP ([…], time 7 day): 5.9 g/dL; gamma-GTP ([…], time 7 day): 1 IU/L; A/G ([…], time 14 day): 0.8; ALP ([…], time 14 day): 1729.4 IU/L; ALT ([…], time 14 day): 34.2 IU/L; AST ([…], time 14 day): 63 IU/L; BUN ([…], time 14 day): 15 mg/dL; CRE ([…], time 14 day): 0.2 mg/dL; Ca ([…], time 14 day): 11.2 mg/dL; Cl ([…], time 14 day): 104 meq/L; DBIL ([…], time 14 day): 0.02 mg/dL; GLC ([…], time 14 day): 189.4 mg/dL; IP ([…], time 14 day): 6.9 mg/dL; K ([…], time 14 day): 4 meq/L; LDH ([…], time 14 day): 72.8 IU/L; Na ([…], time 14 day): 143.4 meq/L; PL ([…], time 14 day): 179.2 mg/dL; RALB ([…], time 14 day): 2.8 g/dL; TBIL ([…], time 14 day): 0.048 mg/dL; TC ([…], time 14 day): 79.8 mg/dL; TG ([…], time 14 day): 208.6 mg/dL; TP ([…], time 14 day): 6.3 g/dL; gamma-GTP ([…], time 14 day): 1 IU/L; A/G ([…], time 28 day): 0.8; ALP ([…], time 28 day): 1081.4 IU/L; ALT ([…], time 28 day): 39 IU/L; AST ([…], time 28 day): 62.4 IU/L; BUN ([…], time 28 day): 15.2 mg/dL; CRE ([…], time 28 day): 0.3 mg/dL; Ca ([…], time 28 day): 11.2 mg/dL; Cl ([…], time 28 day): 104.8 meq/L; DBIL ([…], time 28 day): 0.028 mg/dL; GLC ([…], time 28 day): 188.8 mg/dL; IP ([…], time 28 day): 6.3 mg/dL; K ([…], time 28 day): 3.8 meq/L; LDH ([…], time 28 day): 78.8 IU/L; Na ([…], time 28 day): 145.4 meq/L; PL ([…], time 28 day): 170.6 mg/dL; RALB ([…], time 28 day): 2.8 g/dL; TBIL ([…], time 28 day): 0.07 mg/dL; TC ([…], time 28 day): 77.2 mg/dL; TG ([…], time 28 day): 188.2 mg/dL; TP ([…], time 28 day): 6.3 g/dL; gamma-GTP ([…], time 28 day): 1 IU/L
